Assay results taken from paper PMC8151892, “Partial Agonist Activity of Neonicotinoids on Rat Nicotinic Receptors: Consequences over Epinephrine Secretion and In Vivo Blood Pressure” (International Journal of Molecular Sciences, 2021).

Target: T1, α3β4 nicotinic acetylcholine receptor (α3 subunit) (Rattus norvegicus, UniProt P04757+P12392)
T1 construct: gene Chrna3; complete open reading frames of rat α3 and β4 subunits, RNA 1:1, Xenopus oocytes; with nAChR β4 subunit (Chrnb4)
Assay: two-electrode voltage clamp in Xenopus oocytes (partial agonist)
Type: cell-based

T1 sequence (P04757 26-499): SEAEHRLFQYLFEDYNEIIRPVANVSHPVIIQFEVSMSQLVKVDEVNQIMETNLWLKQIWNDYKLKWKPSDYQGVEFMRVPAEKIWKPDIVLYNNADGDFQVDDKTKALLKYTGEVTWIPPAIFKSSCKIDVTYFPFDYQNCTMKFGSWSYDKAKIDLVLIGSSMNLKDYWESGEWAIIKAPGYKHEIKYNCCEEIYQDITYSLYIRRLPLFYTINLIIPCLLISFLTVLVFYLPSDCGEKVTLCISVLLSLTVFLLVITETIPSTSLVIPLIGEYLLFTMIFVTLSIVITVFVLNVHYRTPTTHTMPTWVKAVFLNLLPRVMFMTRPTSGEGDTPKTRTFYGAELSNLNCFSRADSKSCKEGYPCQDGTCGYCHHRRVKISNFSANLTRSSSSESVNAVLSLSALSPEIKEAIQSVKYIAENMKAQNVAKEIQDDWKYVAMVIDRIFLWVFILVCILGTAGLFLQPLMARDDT
T1 sequence (P12392 21-495): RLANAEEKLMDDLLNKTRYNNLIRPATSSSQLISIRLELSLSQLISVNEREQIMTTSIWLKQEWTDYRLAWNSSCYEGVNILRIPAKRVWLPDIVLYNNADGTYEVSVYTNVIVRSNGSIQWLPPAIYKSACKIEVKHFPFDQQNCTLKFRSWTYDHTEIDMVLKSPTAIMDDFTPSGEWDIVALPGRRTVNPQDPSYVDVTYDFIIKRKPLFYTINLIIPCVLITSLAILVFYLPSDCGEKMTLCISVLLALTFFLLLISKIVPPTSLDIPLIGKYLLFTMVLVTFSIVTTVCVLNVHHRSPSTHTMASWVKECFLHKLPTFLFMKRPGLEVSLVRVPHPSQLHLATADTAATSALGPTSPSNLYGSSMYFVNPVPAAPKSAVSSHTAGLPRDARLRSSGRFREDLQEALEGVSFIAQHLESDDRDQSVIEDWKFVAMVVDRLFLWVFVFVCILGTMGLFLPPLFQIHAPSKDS

Structure (SMILES): CN/C(=N\[N+](=O)[O-])NCc1cnc(Cl)s1 [CLO, clothianidin]
- EC50: 8.39 ± 0.77 mM
